Converted amounts (≈) assume the structure as drawn.
Assays:
Assay type in all cases: cell-based, Mycobacterium tuberculosis
[1] = tested on: M. tuberculosis H37Rv ATCC 27294; assay: In vitro growth inhibition assay, BACTEC 460 TB system; parameters: key: +: If ΔGI of test vial is less than that of the control vial the culture was sensitive to the test compound; details: final concentration 6.25 μg/ml
M. tuberculosis 27294 = assay: In vitro agar dilution assay (MIC), reference strain; details: for MIC: Mycobacterium tuberculosis, 27294, Table I, read-out: MIC (μg/ml) against M. tuberculosis-27294; for MIC (μg/ml) against M. tuberculosis-27294: Table I
[2] = tested on: M. tuberculosis clinical isolates, sensitive; assay: microbe, parasite or virus in culture; details: for MIC: Mycobacterium tuberculosis, read-out: MIC (μg/ml) against Clinical isolates Sensitive; for MIC (μg/ml) against Clinical isolates Sensitive: Table I, agar dilution

Structure (SMILES)	Growth inhibition of M. tuberculosis 27294 [1]	MIC (M. tuberculosis 27294)	MIC [2]	MIC (μg/ml) against M. tuberculosis-27294 (M. tuberculosis 27294)	MIC (μg/ml) against Clinical isolates Sensitive [2]
Cc1c(CN2CCN(c3ccc(F)cc3)CC2)cc(-c2ccc(Cl)cc2)n1-c1ccc(Cl)cc1 [Compound No. 1, 1-{[1,5-bis(4-chlorophenyl)-2-methylpyrrol-3-yl]methyl}-4-(4-fluorophenyl) piperazine]	+	0.5 µg/mL (≈ 1.01 µM)	0.5 to 2 µg/mL (≈ 1.01 to 4.04 µM)		
Cc1c(CN2CCN(Cc3ccc4c(c3)OCO4)CC2)cc(-c2ccc(Cl)cc2)n1-c1ccc(Cl)cc1 [Compound No. 8, 5-[(4-{[1,5-bis(4-chlorophenyl)-2-methylpyrrol-3-yl]methyl}piperazinyl)methyl]-2H-benzo[d]1,3-dioxolane]	+			1.0 µg/mL (≈ 1.87 µM)	0.5 to 1.0 µg/mL
Cc1cc(CN2CCN(c3cccc(C(F)(F)F)c3)CC2)c(-c2ccccc2)n1NC(=O)c1ccncc1 [Compound No. 23, N-(3-{[4-(3-trifluoromethylphenyl)piperazinyl]methyl}-5-methyl-2-phenylpyrrolyl)-4-pyridylcarboxamide]	+			0.25 µg/mL (≈ 0.481 µM)	0.25 to 1.0 µg/mL
CO[C@H]1/C=C/O[C@@]2(C)Oc3c(C)c(O)c4c(O)c(c(/C=N/N5CCN(C)CC5)c(O)c4c3C2=O)NC(=O)/C(C)=C\C=C\[C@H](C)[C@H](O)[C@@H](C)[C@@H](O)[C@@H](C)[C@H](OC(C)=O)[C@@H]1C [Rifampicin, reference compound]	+	0.25 µg/mL (≈ 0.304 µM)	0.25 µg/mL (≈ 0.304 µM)		
Cc1c(CN2CCN(c3ccccn3)CC2)cc(-c2ccc(Cl)cc2)n1-c1ccc(Cl)cc1 [compound 4, 1-{[1,5-bis(4-chlorophenyl)-2-methylpyrrol-3-yl]methyl}-4-(2-pyridyl) piperazine]	+	0.5 µg/mL (≈ 1.05 µM)	0.25 to 1 µg/mL (≈ 0.524 to 2.09 µM)		
Cc1c(CN2CCN(C(=O)c3ccco3)CC2)cc(-c2ccc(Cl)cc2)n1-c1ccc(Cl)cc1 [compound 7, 4-{[1,5-bis(4-chlorophenyl)-2-methylpyrrol-3-yl]methyl}piperazinyl-2-furyl-ketone]	+			4.0 µg/mL (≈ 8.09 µM)	1.0 to 4.0 µg/mL
Cc1ccc(Cl)cc1N1CCN(Cc2cc(-c3ccc(Cl)cc3)n(-c3ccc(Cl)cc3)c2C)CC1 [compound 10, 1-{[1,5-bis(4-chlorophenyl)-2-methylpyrrol-3-yl]methyl}-4-(5-chloro-2-methylphenyl) piperazine]	+	1 µg/mL (≈ 1.91 µM)	1 to 2 µg/mL (≈ 1.91 to 3.81 µM)		
Cc1c(CN2CCCC2)cc(-c2ccccc2)n1NC(=O)c1ccncc1 [compound 19, N-[2-methyl-5-phenyl-3-(pyrrolidinylmethyl)pyrrolyl]-4-pyridylcarboxamide]				16.0 µg/mL (≈ 44.4 µM)	
Cc1cc(CN2CCN(Cc3ccc4c(c3)OCO4)CC2)c(-c2ccccc2)n1NC(=O)c1ccncc1 [compound 24, N-(3-{[4-(2H-benzo[d]1,3-dioxolan-5-ylmethyl)piperazinyl]methyl}-5-methyl-2-phenylpyrrolyl)-4-pyridylcarboxamide]	+			8.0 µg/mL (≈ 15.7 µM)	
Cc1c(CN2CCN(c3ccccn3)CC2)cc(-c2ccccc2)n1NC(=O)c1cnccn1 [compound 28, N-(3-{[4-(2-pyridyl)piperazinyl]methyl}-2-methyl-5-phenylpyrrolyl)pyrazin-2-ylcarboxamide]				2.0 µg/mL (≈ 4.41 µM)	1.0 to 4.0 µg/mL
COc1ccccc1N1CCN(Cc2cc(C)n(NC(=O)c3cnccn3)c2-c2ccccc2)CC1 [compound 32, N-(3-{[4-(2-methoxyphenyl)piperazinyl]methyl}-5-methyl-2-phenylpyrrolyl) pyrazin-2-ylcarboxamide]				>16.0 µg/mL	>16.0 µg/mL
Cc1c(CN2CCN(c3ccc(F)cc3)CC2)cc(-c2ccc(Cl)cc2)n1NC(=O)c1cnccn1 [compound 37, N-(5-(4-chlorophenyl)-3-{[4-(4-fluorophenyl)piperazinyl]methyl}-2-methylpyrrolyl)pyrazin-2-ylcarboxamide]				16.0 µg/mL (≈ 31.7 µM)	8 to 16.0 µg/mL
COc1ccccc1N1CCN(Cc2cc(-c3ccc(Cl)cc3)n(NC(=O)c3cnccn3)c2C)CC1 [compound 38, N-(5-(4-chlorophenyl)-3-{[4-(2-methoxyphenyl)piperazinyl]methyl}-2-methylpyrrolyl)pyrazin-2-ylcarboxamide]				>16.0 µg/mL	>16.0 µg/mL
Cc1cc(CN2CCN(c3ccc(F)cc3)CC2)c(-c2ccc(Cl)cc2)n1NC(=O)c1cnccn1 [compound 41, N-(2-(4-chlorophenyl)-3-{[4-(4-fluorophenyl)piperazinyl]methyl}-5-methylpyrrolyl)pyrazin-2-ylcarboxamide]				>16.0 µg/mL	>16.0 µg/mL
Cc1cc(CN2CCN(c3cccc(C(F)(F)F)c3)CC2)c(-c2ccc(Cl)cc2)n1NC(=O)c1cnccn1 [compound 43, N-(2-(4-chlorophenyl)-3-{[4-(3-trifluoromethylphenyl)piperazinyl]methyl}-5-methylpyrrolyl)pyrazin-2-ylcarboxamide]				>16.0 µg/mL	>16.0 µg/mL
Cc1c(CN2CCN(c3ccc(F)cc3)CC2)cc(-c2ccccc2)n1-c1ccc(F)cc1F [compound 51, 1-{[1-(2,4-difluorophenyl)-2-methyl-5-phenylpyrrol-3-yl]methyl}-4-(4-fluorophenyl)piperazine]		> 16 µg/mL	> 16 µg/mL		
Cc1c(CN2CCN(c3cccc(C(F)(F)F)c3)CC2)cc(-c2ccccc2)n1-c1ccc(F)cc1F [compound 53, 1-{[1-(2,4-difluorophenyl)-2-methyl-5-phenylpyrrol-3-yl]methyl}-4-(3-trifluoromethylphenyl)piperazine]		> 16 µg/mL	> 16 µg/mL		
Cc1cc(CN2CCN(c3ccc(F)cc3)CC2)c(-c2ccccc2)n1-c1ccc(F)cc1F [compound 55, 1-{[1-(2,4-difluorophenyl)-5-methyl-2-phenylpyrrol-3-yl]methyl}-4-(4-fluorophenyl) piperazine]		> 16 µg/mL	> 16 µg/mL		
COc1ccccc1N1CCN(Cc2cc(-c3ccc(Cl)cc3)n(-c3cccc4ccccc34)c2C)CC1 [compound 59, 1-{[5-(4-chlorophenyl)-2-methyl-1-naphthylpyrrol-3-yl]methyl}-4-(2-methoxyphenyl)piperazine]				>16.0 µg/mL	>16.0 µg/mL
Cc1cc(CN2CCN(c3cccc(C(F)(F)F)c3)CC2)c(-c2ccc(Cl)cc2)n1-c1cccc2ccccc12 [compound 64, 1-{[2-(4-chlorophenyl)-5-methyl-1-naphthylpyrrol-3-yl]methyl}-4-(3-trifluoromethylphenyl)piperazine]				>16.0 µg/mL	>16.0 µg/mL
CCC(CO)n1c(C)c(CN2CCSCC2)c(CO)c1-c1ccccc1 (stereo not drawn) [compound 90, 2-[3-(hydroxymethyl)-5-methyl-2-phenyl-4-(1,4-thiazaperhydroin-4-ylmethyl)-pyrrolyl]butan-1-ol]				>16.0 µg/mL	>16.0 µg/mL
